Data taken from US9006265B2, “Substituted fused pyrimidinones and dihydropyrimidinones” (Bayer Intellectual Property GmbH, priority 2010, dated 2015).

How the values were obtained:
[1] = test system: BRSNS; experiment: Drought stress test on crop plants in greenhouse, spray application; format: in vivo, Brassica napes; conditions: efficacy = percentage reduction in intensity of damage, mean of three results
Description: (§1) Seeds of monocotyledonous and dicotyledonous crop plants were laid out in sandy loam in wood-fiber pots, covered with soil and cultivated in a greenhouse under good growth conditions. The test plants were treated at the early leaf stage (BBCH10-BBCH13). To ensure uniform water supply before commencement of stress, the potted plants were supplied with the maximum amount of water immediately beforehand by dam irrigation and, after application, transferred in plastic inserts in order to prevent subsequent, excessively rapid drying. The inventive compounds, formulated in the form of wettable powders (WP), wettable granules (WG), suspension concentrates (SC) or emulsion concentrates (EC), were sprayed onto the green parts of the plants as an aqueous suspension at an equivalent water application rate of 600 l/ha with addition of 0.2% wetting agent (agrotin). Substance application is followed immediately by stress treatment of the plants (cold or drought stress). For cold stress treatment, the plants were kept under the following controlled conditions: • “day”: 12 hours with illumination at 8° C. • “night”: 12 hours without illumination at 1° C.
(§2) Drought stress was induced by gradual drying out under the following conditions: • “day”: 14 hours with illumination at 26° C. • “night”: 10 hours without illumination at 18° C.
(§3) The duration of the respective stress phases was guided mainly by the state of the untreated (=treated with blank formulation without test compound), stressed control plants and thus varied from crop to crop. It was ended (by re-irrigating or transfer to a greenhouse with good growth conditions) as soon as irreversible damage was observed on the untreated, stressed control plants. In the case of dicotyledonous crops, for example oilseed rape and soybeans, the duration of the drought stress phase varied between 3 and 5 days, in the case of monocotyledonous crops, for example wheat, barley or corn, between 6 and 10 days. The duration of the cold stress phase varied between 12 and 14 days.
(§4) The end of the stress phase was followed by an approx. 5-7-day recovery phase, during which the plants were once again kept under good growth conditions in a greenhouse. In order to rule out any influence of the effects observed by any fungicidal action of the test compounds, it was additionally ensured that the tests proceeded without fungal infection and without infection pressure.
(§5) After the recovery phase had ended, the intensities of damage were rated in visual comparison to untreated, unstressed controls of the same age (in the case of drought stress) or the same growth stage (in the case of cold stress). The intensity of damage was first assessed as a percentage (100%=plants have died, 0%=like control plants). These values were then used to calculate the efficacy of the test compounds (=percentage reduction in the intensity of damage as a result of substance application) by the following formula:
(§6) [formula] EF: efficacy (%) DVus: damage value of the untreated, stressed control DVts: damage value of the plants treated with test compound
(§7) The tables A-1 and B-1 to B-4 below list mean values in each case from three results of the same test.
(§8) Efficacies of selected compounds of the formula (I) under drought stress using the examples of HORVS, BRSNS, ZEAMX und TRZAS: […]

[2] = test system: HORVS; experiment: as above; format: in vivo, Hordeum vulgare; conditions: dosage 500 g/ha, efficacy = percentage reduction in intensity of damage, mean of three results
Description: Seeds of monocotyledonous and dicotyledonous crop plants were laid out in sandy loam in wood-fiber pots, covered with soil and cultivated in a greenhouse under good growth conditions. The test plants were treated at the early leaf stage (BBCH10-BBCH13). To ensure uniform water supply before commencement of stress, the potted plants were supplied with the maximum amount of water immediately beforehand by dam irrigation and, after application, transferred in plastic inserts in order to prevent subsequent, excessively rapid drying. The inventive compounds, formulated in the form of wettable powders (WP), wettable granules (WG), suspension concentrates (SC) or emulsion concentrates (EC), were sprayed onto the green parts of the plants as an aqueous suspension at an equivalent water application rate of 600 l/ha with addition of 0.2% wetting agent (agrotin). Substance application is followed immediately by stress treatment of the plants (cold or drought stress). […]
After the recovery phase had ended, the intensities of damage were rated in visual comparison to untreated, unstressed controls of the same age (in the case of drought stress) or the same growth stage (in the case of cold stress). The intensity of damage was first assessed as a percentage (100%=plants have died, 0%=like control plants). […]

[3] = test system: TRZAS; experiment: as above; format: in vivo, Triticum aestivum; conditions: dosage 250 g/ha, efficacy = percentage reduction in intensity of damage, mean of three results
Description: as §1, §2, §3, §4, §5, §6, §7, §8

[4] = test system: ZEAMX; experiment: as above; format: in vivo, Zea mays; conditions: efficacy = percentage reduction in intensity of damage, mean of three results
Description: as §1, §2, §3, §4, §5, §6, §7, §8

[5] = test system: ZEAMX; experiment: Cold stress test on crop plants in greenhouse, spray application; format: in vivo, Zea mays; conditions: efficacy = percentage reduction in intensity of damage, mean of three results
Description: Seeds of monocotyledonous and dicotyledonous crop plants were laid out in sandy loam in wood-fiber pots, covered with soil and cultivated in a greenhouse under good growth conditions. The test plants were treated at the early leaf stage (BBCH10-BBCH13). To ensure uniform water supply before commencement of stress, the potted plants were supplied with the maximum amount of water immediately beforehand by dam irrigation and, after application, transferred in plastic inserts in order to prevent subsequent, excessively rapid drying. The inventive compounds, formulated in the form of wettable powders (WP), wettable granules (WG), suspension concentrates (SC) or emulsion concentrates (EC), were sprayed onto the green parts of the plants as an aqueous suspension at an equivalent water application rate of 600 l/ha with addition of 0.2% wetting agent (agrotin). Substance application is followed immediately by stress treatment of the plants (cold or drought stress). For cold stress treatment, the plants were kept under the following controlled conditions: • “day”: 12 hours with illumination at 8° C. • “night”: 12 hours without illumination at 1° C. The duration of the respective stress phases was guided mainly by the state of the untreated (=treated with blank formulation without test compound), stressed control plants and thus varied from crop to crop. It was ended (by re-irrigating or transfer to a greenhouse with good growth conditions) as soon as irreversible damage was observed on the untreated, stressed control plants. In the case of dicotyledonous crops, for example oilseed rape and soybeans, the duration of the drought stress phase varied between 3 and 5 days, in the case of monocotyledonous crops, for example wheat, barley or corn, between 6 and 10 days. The duration of the cold stress phase varied between 12 and 14 days. The end of the stress phase was followed by an approx. 5-7-day recovery phase, during which the plants were once again kept under good growth conditions in a greenhouse. In order to rule out any influence of the effects observed by any fungicidal action of the test compounds, it was additionally ensured that the tests proceeded without fungal infection and without infection pressure. After the recovery phase had ended, the intensities of damage were rated in visual comparison to untreated, unstressed controls of the same age (in the case of drought stress) or the same growth stage (in the case of cold stress). The intensity of damage was first assessed as a percentage (100%=plants have died, 0%=like control plants). These values were then used to calculate the efficacy of the test compounds (=percentage reduction in the intensity of damage as a result of substance application) by the following formula: [formula] EF: efficacy (%) DVus: damage value of the untreated, stressed control DVts: damage value of the plants treated with test compound The tables A-1 and B-1 to B-4 below list mean values in each case from three results of the same test. Efficacies of selected compounds of the formula (I) under cold stress using the example of ZEAMX: […]

## Cc1cccc2c(=O)[nH]c(CCc3ccccc3)nc12 [I.1-145]
[1]; dosage 50 g/ha
  EF (BRSNS): >5%

## Cc1nc2c([N+](=O)[O-])cccc2c(=O)[nH]1 [I.1-32]
[2]
  EF (HORVS): >5%

## O=C1NC(c2ccoc2)Nc2cccc(Cl)c21 (centres unmarked) [I.4-232]
[3]
  EF (TRZAS): >5%
[1]; dosage 250 g/ha
  EF (BRSNS): >5%

## COc1cc2nc(-c3ccoc3)[nH]c(=O)c2cc1OC [I.1-424]
[4]; dosage 250 g/ha
  EF (ZEAMX): >5%

## Cc1ccc(-c2nc3c(C)cccc3c(=O)[nH]2)c(Cl)c1 [I.1-505, 2-(2-Chloro-4-methylphenyl)-8-methylquinazolin-4(3H)-one]
other
  melting point: 234 °C

## COc1cccc2c(=O)[nH]c(C3CCCC3)nc12 [I.1-157]
[4]; dosage 500 g/ha
  EF (ZEAMX): >5%

## Cc1nn2c([nH]c(=O)c3ccccc32)c1-c1ccccc1 [I.3-1]
[1]; dosage 250 g/ha
  EF (BRSNS): >5%

## Cn1cccc1-c1nc2cc(Cl)ccc2c(=O)[nH]1 [I.1-197]
[4]; dosage 250 g/ha
  EF (ZEAMX): >5%
[3]
  EF (TRZAS): >5%

## Cc1nc[nH]c1-c1nc2cc(Cl)ccc2c(=O)[nH]1 [I.1-139]
[4]; dosage 500 g/ha
  EF (ZEAMX): >5%

## O=C1NC(c2ccoc2)Nc2ccccc21 (centres unmarked) [I.4-51]
[5]; dosage 250 g/ha
  EF (ZEAMX): >5%

## Cc1ccc(-c2nc3ccccc3c(=O)[nH]2)o1 [I.1-44]
[4]; dosage 500 g/ha
  EF (ZEAMX): >5%

## O=C1NC(c2ccc(Br)cc2F)Nc2cccc(F)c21 (centres unmarked) [I.4-227]
[3]
  EF (TRZAS): >5%

## Cc1cccc2c1NC(c1ccc(C(F)(F)F)cc1)NC2=O (centres unmarked) [I.4-21]
[4]; dosage 1000 g/ha
  EF (ZEAMX): >5%

## CC(C)c1nc2ccccc2c(=O)[nH]1 [I.1-15]
[4]; dosage 500 g/ha
  EF (ZEAMX): >5%

## O=c1[nH]c(-c2ccc(Br)cc2)nc2c(Cl)cccc12 [I.1-204]
[5]; dosage 25 g/ha
  EF (ZEAMX): >5%

## CCN(CC)CCN1C(=O)c2cccc(OC)c2NC1c1ccc(C(F)(F)F)cc1Cl (centres unmarked) [I.4-324]
[4]; dosage 250 g/ha
  EF (ZEAMX): >5%

## O=C1NC(CCc2ccccc2)Nc2cccc(F)c21 (centres unmarked) [I.4-184]
[5]; dosage 250 g/ha
  EF (ZEAMX): >5%

## CN1c2ccccc2C(=O)NC1c1ccoc1 (centres unmarked) [I.4-85]
[4]; dosage 250 g/ha
  EF (ZEAMX): >5%

## O=c1[nH]c(C2CCCC2)nc2c(O)cccc12 [I.1-148]
[4]; dosage 500 g/ha
  EF (ZEAMX): >5%

## Cc1cccc2c1NC(c1ccoc1)NC2=O (centres unmarked) [I.4-84]
[4]; dosage 250 g/ha
  EF (ZEAMX): >5%

## O=C1NC(c2ccsc2)Nc2cccc(F)c21 (centres unmarked) [I.4-177]
[4]; dosage 250 g/ha
  EF (ZEAMX): >5%

## Cc1cc(-c2nc3ccccc3c(=O)[nH]2)oc1C [I.1-45]
[4]; dosage 500 g/ha
  EF (ZEAMX): >5%

## COc1cc(/C=C/C2NC(=O)c3ccccc3N2C)cc(OC)c1O (centres unmarked) [I.4-90]
[1]; dosage 250 g/ha
  EF (BRSNS): >5%

## CN1c2ccccc2C(=O)NC1c1cnn(C)c1 (centres unmarked) [I.4-63]
[5]; dosage 50 g/ha
  EF (ZEAMX): >5%

## CCOC(=O)c1c(C#N)nn2c1[nH]c(=O)c1ccccc12 [I.3-32]
[4]; dosage 250 g/ha
  EF (ZEAMX): >5%

## CCn1ccc(C2NC(=O)c3cccc(OC)c3N2)n1 (centres unmarked) [I.4-97]
[4]; dosage 250 g/ha
  EF (ZEAMX): >5%
[3]
  EF (TRZAS): >5%
